Reference: ChEMBL document CHEMBL4665643 (Bioorg Med Chem Lett, 2019)

How the values were obtained:
[1] = biological target: T1, Phosphatidylinositol 4,5-bisphosphate 3-kinase catalytic subunit delta isoform (Homo sapiens) (UniProt O00329); assay: Inhibition of recombinant human His-tagged full length PI3Kdelta expressed in baculovirus expression system using PIP:PS as substrate at 0.1 uM incubated for 60 mins by Adapta assay relative to control
T1 sequence (whole entry): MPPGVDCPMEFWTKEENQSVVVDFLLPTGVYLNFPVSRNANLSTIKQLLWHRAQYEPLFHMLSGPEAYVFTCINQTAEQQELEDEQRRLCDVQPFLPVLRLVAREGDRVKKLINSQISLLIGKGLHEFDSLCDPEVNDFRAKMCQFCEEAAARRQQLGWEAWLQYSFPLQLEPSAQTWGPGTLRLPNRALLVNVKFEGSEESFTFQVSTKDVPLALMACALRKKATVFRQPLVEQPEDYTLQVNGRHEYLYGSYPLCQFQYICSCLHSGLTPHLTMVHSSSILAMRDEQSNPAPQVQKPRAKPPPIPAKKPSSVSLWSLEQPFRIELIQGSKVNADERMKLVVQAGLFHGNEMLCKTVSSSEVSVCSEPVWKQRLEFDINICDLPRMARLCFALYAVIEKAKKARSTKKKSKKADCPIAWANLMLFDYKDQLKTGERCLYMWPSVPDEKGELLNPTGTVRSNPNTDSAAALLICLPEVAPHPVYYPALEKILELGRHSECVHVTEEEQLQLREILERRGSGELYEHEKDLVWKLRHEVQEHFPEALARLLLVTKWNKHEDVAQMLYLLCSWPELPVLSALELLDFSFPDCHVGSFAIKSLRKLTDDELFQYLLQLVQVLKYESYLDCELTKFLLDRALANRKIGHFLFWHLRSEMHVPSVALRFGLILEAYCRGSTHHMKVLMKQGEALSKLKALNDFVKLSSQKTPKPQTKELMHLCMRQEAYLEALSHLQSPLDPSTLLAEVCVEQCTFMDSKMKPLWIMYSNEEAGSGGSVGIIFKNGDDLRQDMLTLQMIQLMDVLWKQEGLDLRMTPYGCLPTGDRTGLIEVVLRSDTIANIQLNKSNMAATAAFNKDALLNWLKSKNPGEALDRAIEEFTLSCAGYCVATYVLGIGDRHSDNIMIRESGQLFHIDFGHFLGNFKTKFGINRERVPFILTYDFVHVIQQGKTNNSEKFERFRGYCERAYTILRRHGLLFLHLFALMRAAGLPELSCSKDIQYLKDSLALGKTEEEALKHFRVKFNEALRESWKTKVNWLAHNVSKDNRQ

[2] = system: RAF proto-oncogene serine/threonine-protein kinase (Homo sapiens), P04049 [Y340D,Y341D]; assay: Inhibition of recombinant human GST-tagged RAF1 Y340D/Y341D double mutant (306 to 648 residues) expressed in baculovirus expression system using Ser/Thr 03 as substrate at 0.1 uM incubated for 60 mins by Z'-Lyte assay relative to control
[3] = biological target: Non-receptor tyrosine-protein kinase TYK2 (Homo sapiens) (UniProt P29597); assay: Inhibition of recombinant human N-terminal GST-tagged TYK2 (833 to 1187 residues) expressed in baculovirus expression system using Tyr 03 as substrate at 0.1 uM incubated for 60 mins by Z'-Lyte assay relative to control
[4] = biological target: Tyrosine-protein kinase JAK1 (Homo sapiens, UniProt P23458); settings: dose 0.1 µM, time 60.0 min
[5] = biological target: T2, Beta-adrenergic receptor kinase 1 (Homo sapiens) (UniProt P25098); assay: Inhibition of recombinant human His-tagged full length GRK2 expressed in baculovirus expression system using Ser/Thr 16 as substrate at 0.1 uM incubated for 60 mins by Z'-Lyte assay relative to control
T2 sequence (whole entry): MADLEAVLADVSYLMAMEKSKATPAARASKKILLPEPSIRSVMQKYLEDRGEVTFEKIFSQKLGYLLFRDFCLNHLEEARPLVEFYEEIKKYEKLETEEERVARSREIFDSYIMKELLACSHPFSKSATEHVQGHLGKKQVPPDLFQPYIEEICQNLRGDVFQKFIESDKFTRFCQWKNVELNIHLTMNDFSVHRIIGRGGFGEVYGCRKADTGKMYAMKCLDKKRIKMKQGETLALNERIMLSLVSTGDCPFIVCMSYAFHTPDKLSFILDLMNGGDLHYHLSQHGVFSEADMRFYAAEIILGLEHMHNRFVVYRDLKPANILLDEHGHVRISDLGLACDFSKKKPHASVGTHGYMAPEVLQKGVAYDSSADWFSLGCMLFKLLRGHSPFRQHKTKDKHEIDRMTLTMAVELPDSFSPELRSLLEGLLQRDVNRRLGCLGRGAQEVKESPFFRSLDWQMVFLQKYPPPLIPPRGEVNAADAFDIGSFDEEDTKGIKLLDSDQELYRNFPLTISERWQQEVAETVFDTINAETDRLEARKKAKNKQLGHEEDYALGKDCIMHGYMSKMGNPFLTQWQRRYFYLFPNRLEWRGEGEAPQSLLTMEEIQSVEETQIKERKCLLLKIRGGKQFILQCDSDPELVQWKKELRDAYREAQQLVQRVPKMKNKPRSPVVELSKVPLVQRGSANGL

[6] = biological target: T3, Aurora kinase A (Homo sapiens) (UniProt O14965); assay: Inhibition of recombinant human His-tagged full length Aurora A expressed in baculovirus expression system using Ser/Thr 01 as substrate at 0.1 uM incubated for 60 mins by Z'-Lyte assay relative to control
T3 sequence (whole entry): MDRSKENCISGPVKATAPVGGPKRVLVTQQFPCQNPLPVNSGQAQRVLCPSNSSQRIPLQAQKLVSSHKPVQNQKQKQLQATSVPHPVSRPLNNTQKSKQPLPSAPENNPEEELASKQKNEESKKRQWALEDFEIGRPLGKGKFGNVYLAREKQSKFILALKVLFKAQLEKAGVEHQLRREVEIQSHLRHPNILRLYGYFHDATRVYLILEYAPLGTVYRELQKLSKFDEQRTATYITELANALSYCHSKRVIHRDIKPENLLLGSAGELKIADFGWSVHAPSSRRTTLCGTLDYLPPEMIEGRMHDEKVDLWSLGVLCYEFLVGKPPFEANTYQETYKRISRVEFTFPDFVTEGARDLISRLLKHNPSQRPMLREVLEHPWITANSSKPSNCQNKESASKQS

[7] = biological target: Epidermal growth factor receptor (Homo sapiens) (UniProt P00533); assay: Inhibition of recombinant human GST-tagged EGFR (668 to 1210 residues) expressed in baculovirus expression system using Tyr 4 as substrate at 0.1 uM incubated for 60 mins by Z'-Lyte assay relative to control
[8] = biological target: Proto-oncogene tyrosine-protein kinase Src (Homo sapiens) (UniProt P12931); assay: Inhibition of recombinant human C-terminal His-tagged full length SRC expressed in baculovirus expression system using Tyr 02 as substrate at 0.1 uM incubated for 60 mins by Z'-Lyte assay relative to control
[9] = biological target: CDK8/Cyclin C (Homo sapiens) (UniProt P49336+P24863); assay: Inhibition of tracer 236 binding to recombinant human His-tagged full length CDK8/Cyclin C expressed in baculovirus expression system at 0.1 uM incubated for 60 mins by Lanthascreen assay relative to control

Chain of Tyrosine-protein kinase JAK1 (P23458 whole entry): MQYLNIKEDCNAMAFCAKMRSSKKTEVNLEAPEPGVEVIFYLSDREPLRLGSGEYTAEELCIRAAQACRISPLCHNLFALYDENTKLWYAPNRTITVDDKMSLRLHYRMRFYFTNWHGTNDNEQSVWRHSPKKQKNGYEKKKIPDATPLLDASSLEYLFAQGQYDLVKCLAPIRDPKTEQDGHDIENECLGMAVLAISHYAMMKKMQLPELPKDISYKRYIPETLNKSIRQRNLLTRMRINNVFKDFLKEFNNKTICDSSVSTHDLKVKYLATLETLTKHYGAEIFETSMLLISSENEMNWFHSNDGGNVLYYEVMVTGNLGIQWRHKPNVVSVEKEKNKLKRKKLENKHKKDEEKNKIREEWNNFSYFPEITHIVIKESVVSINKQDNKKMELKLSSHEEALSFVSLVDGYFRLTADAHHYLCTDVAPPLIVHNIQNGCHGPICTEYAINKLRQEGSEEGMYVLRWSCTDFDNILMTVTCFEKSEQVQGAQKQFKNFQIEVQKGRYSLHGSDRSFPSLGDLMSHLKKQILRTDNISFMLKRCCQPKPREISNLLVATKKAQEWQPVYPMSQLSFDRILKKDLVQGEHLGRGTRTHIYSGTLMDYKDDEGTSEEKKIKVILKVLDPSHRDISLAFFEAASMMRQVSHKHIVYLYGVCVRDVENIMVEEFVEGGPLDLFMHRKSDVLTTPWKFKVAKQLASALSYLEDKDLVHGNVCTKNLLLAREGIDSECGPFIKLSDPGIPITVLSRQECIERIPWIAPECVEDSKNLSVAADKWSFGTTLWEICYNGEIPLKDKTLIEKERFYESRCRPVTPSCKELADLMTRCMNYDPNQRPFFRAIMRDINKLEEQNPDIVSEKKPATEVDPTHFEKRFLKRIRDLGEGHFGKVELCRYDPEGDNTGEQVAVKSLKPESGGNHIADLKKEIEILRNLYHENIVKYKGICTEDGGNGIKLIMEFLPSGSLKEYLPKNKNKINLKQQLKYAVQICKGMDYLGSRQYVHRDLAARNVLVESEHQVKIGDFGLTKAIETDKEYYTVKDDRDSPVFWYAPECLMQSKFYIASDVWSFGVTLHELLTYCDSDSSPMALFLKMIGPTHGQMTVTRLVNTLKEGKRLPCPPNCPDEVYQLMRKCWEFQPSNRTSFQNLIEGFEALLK
Chain of Non-receptor tyrosine-protein kinase TYK2 (Homo sapiens) (P29597 whole entry, the tested form may be a part): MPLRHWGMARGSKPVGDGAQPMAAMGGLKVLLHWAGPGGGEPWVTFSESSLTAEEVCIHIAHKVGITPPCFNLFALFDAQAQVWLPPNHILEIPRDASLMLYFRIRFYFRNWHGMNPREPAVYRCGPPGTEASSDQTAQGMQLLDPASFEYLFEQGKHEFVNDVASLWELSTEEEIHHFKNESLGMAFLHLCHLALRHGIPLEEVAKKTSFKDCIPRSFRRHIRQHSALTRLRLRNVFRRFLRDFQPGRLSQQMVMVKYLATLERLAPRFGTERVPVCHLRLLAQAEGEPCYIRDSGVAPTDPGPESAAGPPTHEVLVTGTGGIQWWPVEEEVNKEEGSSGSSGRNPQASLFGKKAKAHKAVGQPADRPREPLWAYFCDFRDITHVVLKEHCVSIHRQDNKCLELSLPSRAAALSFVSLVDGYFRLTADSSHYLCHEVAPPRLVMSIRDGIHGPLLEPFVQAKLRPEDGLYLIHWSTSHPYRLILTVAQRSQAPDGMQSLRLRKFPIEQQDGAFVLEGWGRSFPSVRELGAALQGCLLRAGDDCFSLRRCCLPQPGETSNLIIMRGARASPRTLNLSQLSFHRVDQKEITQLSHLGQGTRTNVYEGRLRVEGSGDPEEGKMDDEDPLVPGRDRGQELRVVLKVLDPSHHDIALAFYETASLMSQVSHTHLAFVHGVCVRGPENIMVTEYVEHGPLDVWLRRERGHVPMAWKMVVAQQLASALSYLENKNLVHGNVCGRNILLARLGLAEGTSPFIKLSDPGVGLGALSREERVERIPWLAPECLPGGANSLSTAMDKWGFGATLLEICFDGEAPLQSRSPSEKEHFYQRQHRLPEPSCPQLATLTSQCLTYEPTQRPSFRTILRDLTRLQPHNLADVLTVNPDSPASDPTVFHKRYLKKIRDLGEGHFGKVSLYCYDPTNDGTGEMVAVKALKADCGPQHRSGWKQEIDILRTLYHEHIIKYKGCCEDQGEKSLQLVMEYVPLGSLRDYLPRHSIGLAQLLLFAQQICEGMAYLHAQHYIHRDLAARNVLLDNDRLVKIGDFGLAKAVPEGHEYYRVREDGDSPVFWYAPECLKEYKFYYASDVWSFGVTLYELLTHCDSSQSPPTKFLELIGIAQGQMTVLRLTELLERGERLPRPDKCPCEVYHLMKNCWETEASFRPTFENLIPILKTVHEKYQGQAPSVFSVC
Chain of Epidermal growth factor receptor (Homo sapiens) (P00533 whole entry, the tested form may be a part): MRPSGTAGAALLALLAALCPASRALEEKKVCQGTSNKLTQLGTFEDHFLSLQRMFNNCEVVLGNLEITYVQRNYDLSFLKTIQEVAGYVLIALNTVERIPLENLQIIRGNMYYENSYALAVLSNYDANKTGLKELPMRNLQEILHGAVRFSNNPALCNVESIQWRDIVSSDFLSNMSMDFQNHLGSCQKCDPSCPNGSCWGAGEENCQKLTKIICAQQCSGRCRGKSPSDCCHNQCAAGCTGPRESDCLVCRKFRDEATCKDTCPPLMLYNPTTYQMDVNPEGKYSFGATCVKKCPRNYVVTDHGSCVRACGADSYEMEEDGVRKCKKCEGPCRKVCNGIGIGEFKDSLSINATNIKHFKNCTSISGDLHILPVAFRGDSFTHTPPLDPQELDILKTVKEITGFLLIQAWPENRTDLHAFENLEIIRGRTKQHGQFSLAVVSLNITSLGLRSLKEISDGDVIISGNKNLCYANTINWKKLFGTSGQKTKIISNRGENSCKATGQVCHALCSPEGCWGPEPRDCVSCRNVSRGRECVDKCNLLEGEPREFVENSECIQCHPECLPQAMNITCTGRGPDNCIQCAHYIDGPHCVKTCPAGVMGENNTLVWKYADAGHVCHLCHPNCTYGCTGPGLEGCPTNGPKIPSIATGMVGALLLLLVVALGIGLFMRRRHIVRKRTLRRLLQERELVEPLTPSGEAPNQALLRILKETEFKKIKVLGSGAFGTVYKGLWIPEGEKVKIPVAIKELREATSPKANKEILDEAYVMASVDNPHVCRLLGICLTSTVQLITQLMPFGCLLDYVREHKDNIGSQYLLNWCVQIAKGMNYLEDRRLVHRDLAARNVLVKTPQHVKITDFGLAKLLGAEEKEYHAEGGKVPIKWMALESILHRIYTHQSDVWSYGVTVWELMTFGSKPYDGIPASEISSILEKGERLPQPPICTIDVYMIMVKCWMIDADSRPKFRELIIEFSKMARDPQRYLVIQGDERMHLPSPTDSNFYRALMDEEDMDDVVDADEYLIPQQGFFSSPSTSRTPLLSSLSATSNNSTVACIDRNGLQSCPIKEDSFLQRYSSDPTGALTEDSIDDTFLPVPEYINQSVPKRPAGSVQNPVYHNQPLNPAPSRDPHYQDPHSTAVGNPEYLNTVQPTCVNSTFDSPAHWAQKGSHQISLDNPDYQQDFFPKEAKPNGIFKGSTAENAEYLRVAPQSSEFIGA
Chain of RAF proto-oncogene serine/threonine-protein kinase (Homo sapiens), P04049 [Y340D,Y341D] (P04049 whole entry Y340D/Y341D, the tested form may be a part): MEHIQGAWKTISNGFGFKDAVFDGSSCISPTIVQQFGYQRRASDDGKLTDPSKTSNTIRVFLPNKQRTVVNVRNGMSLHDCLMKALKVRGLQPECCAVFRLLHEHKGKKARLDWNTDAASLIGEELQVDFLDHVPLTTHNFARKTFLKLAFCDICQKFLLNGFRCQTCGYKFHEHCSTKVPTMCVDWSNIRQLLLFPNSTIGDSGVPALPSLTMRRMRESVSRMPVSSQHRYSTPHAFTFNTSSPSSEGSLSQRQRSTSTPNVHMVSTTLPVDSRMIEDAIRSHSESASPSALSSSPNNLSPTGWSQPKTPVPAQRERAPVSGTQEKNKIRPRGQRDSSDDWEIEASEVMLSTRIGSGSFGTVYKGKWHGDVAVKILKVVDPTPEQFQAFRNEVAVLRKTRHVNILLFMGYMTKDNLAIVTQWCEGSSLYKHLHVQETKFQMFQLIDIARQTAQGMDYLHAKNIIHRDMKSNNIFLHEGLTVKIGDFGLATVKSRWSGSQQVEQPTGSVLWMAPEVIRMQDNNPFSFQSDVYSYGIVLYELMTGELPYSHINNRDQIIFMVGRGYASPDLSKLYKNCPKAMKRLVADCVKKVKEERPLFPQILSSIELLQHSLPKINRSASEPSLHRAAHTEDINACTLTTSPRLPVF
Chain of Proto-oncogene tyrosine-protein kinase Src (Homo sapiens) (P12931 2-536 limits assumed): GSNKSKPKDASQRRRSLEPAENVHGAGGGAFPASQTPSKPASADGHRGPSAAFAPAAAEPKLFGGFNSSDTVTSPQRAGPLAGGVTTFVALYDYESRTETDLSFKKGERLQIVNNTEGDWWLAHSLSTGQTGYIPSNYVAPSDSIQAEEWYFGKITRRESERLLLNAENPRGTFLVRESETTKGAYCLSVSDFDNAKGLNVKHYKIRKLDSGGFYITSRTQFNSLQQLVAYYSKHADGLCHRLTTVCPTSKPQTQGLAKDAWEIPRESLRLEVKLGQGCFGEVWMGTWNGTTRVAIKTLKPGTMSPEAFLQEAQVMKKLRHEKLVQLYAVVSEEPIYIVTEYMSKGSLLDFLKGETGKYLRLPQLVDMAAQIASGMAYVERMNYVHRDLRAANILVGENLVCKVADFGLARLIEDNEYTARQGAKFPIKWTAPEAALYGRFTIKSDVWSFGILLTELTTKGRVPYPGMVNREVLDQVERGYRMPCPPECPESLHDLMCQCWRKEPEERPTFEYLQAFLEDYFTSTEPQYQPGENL

Compound | inhibition [1] [%] | inhibition [2] [%] | inhibition [3] [%] | inhibition [4] [%] | inhibition [5] [%] | inhibition [6] [%] | inhibition [7] [%] | inhibition [8] [%] | inhibition [9] [%]
Cn1cc(NC(=O)c2cnn3cccnc23)c(-c2cc(Cl)ccc2OC(F)F)n1 | 6 | 3 | 98 | 96 | 8 | 13 | 2 | 28 | 14
O=C(Nc1c[nH]nc1-c1cc(Cl)ccc1OC(F)F)c1cnn2cccnc12 | 7 | 9 | 100 | 100 | 3 | 20 | 0 | 38 | 38
O=C(Nc1c[nH]nc1-c1cc2ccccc2cc1OC(F)F)c1cnn2cccnc12 | 6 | 7 | 95 | 96 | 0 | 24 | 6 | 35 | 24
